Source: US8466171B2, “Fused heterocyclic compounds useful as modulators of nuclear hormone receptor function” (Bristol-Myers Squibb Company, priority 2007, dated 2013)
Numbering of substitutions follows the chain as printed.

Columns and labels:
androgen receptor (AR) = molecular target: T1, androgen receptor (AR) (Homo sapiens, UniProt P10275); test: MDA-MB-453 Androgen Receptor Transactivation Assay; assay type: cell-based; settings: MDA-MB-453 cells, PSA-Luc reporter, 3 nM DHT, 48 hour incubation
T1 sequence (P10275 1-920): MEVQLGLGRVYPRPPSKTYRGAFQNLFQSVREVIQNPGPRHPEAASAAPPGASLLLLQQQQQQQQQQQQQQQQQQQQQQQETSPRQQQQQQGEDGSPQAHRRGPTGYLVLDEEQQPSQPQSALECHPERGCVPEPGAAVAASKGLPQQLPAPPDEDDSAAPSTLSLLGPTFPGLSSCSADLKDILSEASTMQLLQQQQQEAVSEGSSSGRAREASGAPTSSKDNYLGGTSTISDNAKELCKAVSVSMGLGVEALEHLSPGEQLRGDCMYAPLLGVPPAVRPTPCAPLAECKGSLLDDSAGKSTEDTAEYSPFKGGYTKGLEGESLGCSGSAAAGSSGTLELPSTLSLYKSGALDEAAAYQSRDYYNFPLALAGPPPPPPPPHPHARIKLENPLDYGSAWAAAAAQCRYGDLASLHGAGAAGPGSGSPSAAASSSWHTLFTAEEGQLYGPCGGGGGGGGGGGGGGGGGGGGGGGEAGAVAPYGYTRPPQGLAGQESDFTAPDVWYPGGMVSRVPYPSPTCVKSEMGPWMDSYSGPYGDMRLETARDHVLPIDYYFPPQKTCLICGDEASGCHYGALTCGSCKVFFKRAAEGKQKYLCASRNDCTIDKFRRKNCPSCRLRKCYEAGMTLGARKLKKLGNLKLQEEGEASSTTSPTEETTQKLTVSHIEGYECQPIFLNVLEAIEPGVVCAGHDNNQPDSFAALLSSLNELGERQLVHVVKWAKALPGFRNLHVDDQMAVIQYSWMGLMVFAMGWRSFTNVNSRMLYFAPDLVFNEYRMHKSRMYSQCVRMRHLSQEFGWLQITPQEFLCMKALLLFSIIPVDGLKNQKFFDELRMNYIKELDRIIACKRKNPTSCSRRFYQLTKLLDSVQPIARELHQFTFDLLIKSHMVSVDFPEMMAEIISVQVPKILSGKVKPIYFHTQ
Source text: Compounds can be tested in a cell based transactivation assay used to measure the antagonism of androgen receptor (AR) transcriptional activity. […] The human breast adenocarcinoma MDA-MB-453 cell line (American Type Culture Collection, Rockville, Md., ATCC#: HTB-131), expressing a functional endogenous wild type AR, was transiently transfected with a reporter plasmid and tested for AR dependent transactivation activity in the absence or presence of test compounds. The pGL3 PSA-Luc reporter plasmid is comprised of the cDNA for the firefly luciferase gene and the upstream promoter sequences containing the androgen response elements (AREs) of the prostate specific antigen (PSA). This plasmid functions as a reporter for the transcription-modulating activity of the AR. In order to detect antagonists, the transactivation assay is conducted in the presence of constant concentration of the natural AR hormone (DHT) to induce a defined reporter signal. Addition of increasing concentrations of the suspected antagonist will decrease the reporter signal (luciferase activity).
MDA-MB-453 and 22 RV1 cells were maintained in DMEM (Cellgro, Cat. #10-014-CM) or RPMI 1640 (Gibco Cat. #11875-085) respectively and supplemented with 10% FBS (Invitrogen/GIBCO Life Science). Cells were bulk transfected in flasks with 1.3 ug/ml pGL3 PSA-Luc plasmid by using the Lipofectamine 2000 Reagent (Invitrogen, Cat. #11668-019) and serum-free Opti-MEM I media (Invitrogen, Cat#31985-070) according to the manufacturer's optimized conditions. Transfection was conducted at 37° C. with 5% CO2 for 16-18 hours. Following transfection, cells are washed, treated with trypsin, counted, and seeded in a 96-well plate at 30,000 cells per well in DMEM containing 10% Charcoal/Dextran Treated Fetal Bovine Serum (Gibco Cat. #11054-020) for MDA-MB-453 cells or RPMI 1640 (Gibco Cat. #110835) containing 10% FBS (Invitrogen/GIBCO Life Science) for 22 RV1 cells.
Following transfection, cells were incubated in the absence (blank) or presence (control) of 3 nM DHT (Sigma, Cat. #A-8380) and in the presence or absence of the standard antiandrogen bicalutamide or test compounds ranging in concentrations from 10^−10 to 10^−5M. Duplicates were used for each sample. The compound dilutions were performed by the Tecan Genesis (Tecan, Triangle Park, N.C.). After a 48 hour incubation, luciferase activity was measured using the Steady-Glo Luciferase Assay System (Promega, Cat. #E2550) according to manufacturer's specifications and luminescence was measured on a Packard TopCount (PerkinElmer). For each luciferase sample reading, the percent control (in absence of compounds) was calculated as: % Control=100×[averagesample−averageblank]/[averagecontrol−averageblank] Data was plotted and the IC50 value was defined as the concentration of compound that inhibited 50% of the luciferase activity for the controls.

wild type AR = molecular target: T2, wild type AR (Homo sapiens, UniProt P10275); test: AR Binding Assay (whole cell, MDA-MB-453, competition with [3H]-DHT); settings: MDA-MB-453 cells, competition with 2 nM [3H]-DHT, Cheng-Prusoff
T2 sequence (P10275 1-920 Q868H): T1 sequence (P10275 1-920) with Q868H
Experimental: For the whole cell binding assay, human breast adenocarcinoma MDA-MB-453 cells (American Type Culture Collection, Rockville, Md., ATCC #: HTB-131), expressing a functional endogenous wild type AR, are grown to near confluency in T-225 tissue culture flasks containing Dulbecco's Modified Eagle Medium (DMEM) (Mediatech CAT #45000-668) supplemented with 10% fetal bovine serum (FBS) (Invitrogen/GIBCO Life Science). In order to remove any endogenous ligand that might be complexed with the receptor in the cells, the tissue culture media is removed and the cells are incubated overnight at 37° C. in serum-free DMEM. The next day, cells are rinsed with magnesium and calcium free Phosphate Buffered Saline (PBS) (Invitrogen/GIBCO Life Science), harvested using Cell Stripper Buffer (Mediatech) and re-suspended in serum-free DMEM to achieve a final assay concentration of 4×10^5 cells/well of a 96-well assay plate. […] After the remaining media is removed, cells are washed three times with PBS and harvested onto UniFilter GF/B plates (PerkinElmer).
Two replicates are used for each sample. After 90 minutes at room temperature, cells are harvested by filtering through a GF/B filter plate (PerkinElmer) followed by washing with ice-cold 1×PBS (without calcium and magnesium) to remove unbound label. […] After correcting for non-specific binding, IC50 values are determined. The IC50 value is defined as the concentration of competing ligand needed to reduce specific binding by 50%. […] The Ki values are determined by application of the Cheng-Prusoff equation to the IC50 values where: […]
See e.g., D. Rodbard, Mathematics and Statistics of Ligand Assays: An Illustrated Guide: In: J. Langon and J. J. Clapp, eds., Ligand Assay, Masson Publishing U.S.A., Inc., New York, pp. 45-99 (1981).

Row | SMILES | IC50 (androgen receptor (AR)) [µM] | Ki (wild type AR) [µM]
1 | N#Cc1ccc(N2C[C@@H]3[C@@H]([C@@H]4C=C[C@H]3O4)S2(=O)=O)cc1C(F)(F)F (racemic) [Example 1ii] | 0.108 | 0.029
2 | N#Cc1ccc(N2C[C@H]3[C@@H]4O[C@@H](C[C@H]4O)[C@H]3S2(=O)=O)cc1C(F)(F)F (racemic) [Example 10ii, rac-4-((1R,2R,6R,7R,8S)-8-hydroxy-3,3-dioxido-10-oxa-3-thia-4-azatricyclo[5.2.1.0^2,6]dec-4-yl)-2-(trifluoromethyl)benzonitrile] | 7.5 | 0.745
3 | N#Cc1ccc(N2C[C@H]3[C@@H]4O[C@@H](C[C@H]4O)[C@H]3S2(=O)=O)cc1C(F)(F)F (racemic) [Example 10iii] | 8.32 | 0.568
4 | C[C@]12CC[C@](C)(O1)[C@@H]1[C@H]2CN(c2ccc(C#N)c(C(F)(F)F)c2)S1(=O)=O (racemic) [Example 18, rac-4-((1R,2R,6R,7S)-1,7-dimethyl-3,3-dioxido-10-oxa-3-thia-4-azatricyclo[5.2.1.0^2,6]dec-4-yl)-2-(trifluoromethyl)benzonitrile] | 1.35 | 0.222
5 | C[C@]12C=C[C@H](O1)[C@@H]1[C@H]2CN(c2ccc(C#N)c(C(F)(F)F)c2)S1(=O)=O (racemic) [Example 21i, rac-4-((1R,2R,6R,7S)-7-methyl-3,3-dioxido-10-oxa-3-thia-4-azatricyclo[5.2.1.0^2,6]dec-8-en-4-yl)-2-(trifluoromethyl)benzonitrile] | 1.16 | 0.173
6 | C[C@@]12C=C[C@@H](O1)[C@@H]1CN(c3ccc(C#N)c(C(F)(F)F)c3)S(=O)(=O)[C@@H]12 (racemic) [Example 21ii, rac-4-((1R,2R,6R,7S)-1-methyl-3,3-dioxido-10-oxa-3-thia-4-azatricyclo[5.2.1.0^2,6]dec-8-en-4-yl)-2-(trifluoromethyl)benzonitrile] | 1.11 | 0.145
7 | COC(=O)N[C@@H]1C[C@@H]2O[C@H]1[C@@H]1CN(c3ccc(C#N)c(C(F)(F)F)c3)S(=O)(=O)[C@@H]12 (racemic) [Example 26i, methyl rac-((1R,2R,6R,7R,8S)-4-(4-cyano-3-(trifluoromethyl)phenyl)-3,3-dioxido-10-oxa-3-thia-4-azatricyclo[5.2.1.0^2,6]dec-8-yl)carbamate] | 3.13 | 0.266
8 | N#Cc1ccc(N2C[C@@H]3[C@@H]4O[C@@H](C[C@@H]4O)[C@@H]3S2(=O)=O)cc1C(F)(F)F (single isomer, unassigned) [Example 37i] | 0.154 | 0.01
9 | N#Cc1ccc(N2C[C@@H]3[C@@H]([C@@H]4O[C@H]3C[C@@H]4O)S2(=O)=O)cc1C(F)(F)F (single isomer, unassigned) [Example 38ii] | 0.141 | 0.01
10 | N#Cc1ccc(N2CC3C([C@@H]4CC[C@H]3O4)S2(=O)=O)cc1C(F)(F)F (stereo in doubt) [Example 6, 4-((1S,2R,6R,7R)-3,3-dioxido-10-oxa-3-thia-4-azatricyclo[5.2.1.0^2,6]dec-4-yl)-2-(trifluoromethyl)benzonitrile] | 0.198 | 0.023
11 | C[C@]12[C@H](CN(c3ccc(C#N)c(C(F)(F)F)c3)S1(=O)=O)[C@@H]1C=C[C@H]2O1 [Example 4, 4-((1R,2R,6R,7S)-2-methyl-3,3-dioxido-10-oxa-3-thia-4-azatricyclo[5.2.1.0^2,6]dec-8-en-4-yl)-2-(trifluoromethyl)benzonitrile] | 1.42 | 0.221
12 | N#Cc1ccc(N2C[C@H]3[C@H]4O[C@H]([C@@H]5O[C@@H]54)[C@H]3S2(=O)=O)cc1C(F)(F)F [Example 9, 4-((1R,2S,6S,7R,8R,10R)-3,3-dioxido-9,11-dioxa-3-thia-4-azatetracyclo[5.3.1.0^2,6.0^8,10]undec-4-yl)-2-(trifluoromethyl)benzonitrile] | 2.64 | 0.092
